According to patent US5118675A, “Quinoxaline phosphono-amino acids” (American Home Products Corporation, priority 1991, dated 1992):

Key:
[1] = system: NMDA-lethality; assay: NMDA-lethality model in mice (antagonism of NMDA in vivo, survival); design: species or system mouse (male Swiss-albino, CD-1 strain); conditions: Mus musculus, ip, 0.5 h; test compound i.p. 30 min before NMDA 195 mg/kg i.p.; 30 min observation
Protocol: Male Swiss-albino mice (CD-1 strain, Charles River) 18-22 grams in weight, after 18 hours of food deprivation, were habituated to an observation chamber for 30 minutes. The mice were pretreated with the representative test compound followed thirty minutes later with NMDA, 195 mg/kg, i.p., which is a dose normally causing 90% mortality resulting from motor seizures including uncontrollable hind leg scratching or limbs and/or torso muscle jerking with loss of righting reflex followed by death within the 30 minute observation period after NMDA administration. From the latter, the ED50 for survival is determined.

[2] = target: NMDA receptor; assay: Displacement of tritiated CPP ([3H] CPP binding) in rat frontal cortex homogenates
Protocol: CPP binding at 10 μM concentrations. The IC50 calculated for these compounds is as follows: […]

Molecule	ED50 [1] [mg/kg]	IC50 [2] [nM]
NC(Cc1nc2ccccc2nc1CP(=O)(O)O)C(=O)O (racemic) [Example 1, α-Amino-3-(phosphonomethyl)-2-quinoxalinepropanoic Acid]	3.72	110
NC(Cc1nc2ccccc2nc1CP(=O)(O)O)C(=O)O (single isomer, unassigned) [Laevoisomer of Example 3, (-)-α-amino-3-(phosphonomethyl)-2-quinoxalinepropanoic acid]	1.52	29
Cc1cc2nc(CC(N)C(=O)O)c(CP(=O)(O)O)nc2cc1C (stereo not drawn) [Example 4, α-Amino-6,7-dimethyl-3-(phosphonomethyl)-2-quinoxalinepropanoic Acid]		22
NC(Cc1nc2cc3ccccc3cc2nc1CP(=O)(O)O)C(=O)O (stereo not drawn) [Example 5, α-Amino-3-(phosphonomethyl)-2-benzo[g]quinoxalinepropanoic Acid]	5.3	6
NC(Cc1nc2cc(Cl)c(Cl)cc2nc1CP(=O)(O)O)C(=O)O (stereo not drawn) [Example 7, α-Amino-6,7-dichloro-3-(phosphonomethyl)-2-quinoxalinepropanoic Acid]	1.58	4
NC(Cc1nc2cc(Cl)ccc2nc1CP(=O)(O)O)C(=O)O (stereo not drawn) [Example 8, α-Amino-7-chloro-3-(phosphonomethyl)-2-quinoxalinepropanoic Acid]	1.13	24
NC(Cc1nc2cc(F)c(F)cc2nc1CP(=O)(O)O)C(=O)O (stereo not drawn) [Example 10, α-Amino-6,7-difluoro-3-(phosphonomethyl)-2-quinoxalinepropanoic Acid]		166
COc1cc2nc(CC(N)C(=O)O)c(CP(=O)(O)O)nc2cc1OC (stereo not drawn) [Example 11, α-Amino-6,7-dimethoxy-3-(phosphonomethyl)-2-quinoxalinepropanoic Acid]		832
N[C@@H](CCC(=O)O)C(=O)O [L-glutamic acid, reference compound]		64
D(-)-2-amino-5-phosphono-heptanoic acid [D(-)-2-amino-5-phosphonoheptanoic acid, reference compound]		639
